Consider 6 compounds from ChEMBL document CHEMBL5579851, “Synthesis and antifungal evaluation of novel triazole derivatives bearing a pyrazole-methoxyl moiety” (Eur J Med Chem, 2024).

≈ marks a conversion by molar mass, not a printed value. Bounds are passed on as bounds.

One test has as its system Candida parapsilosis. The test is described as follows: Antifungal activity against Candida parapsilosis 22019 assessed as inhibition of fungal growth incubated for 48 hrs by CLSI based broth microdilution assay. It is filed as functional. The following applies: Lodderomyces parapsilosis. (In broth dilution the organism is exposed to a series of concentrations in liquid medium.)
On to `C[C@@H](OCc1ccn(Cc2ccc(F)cc2Cl)n1)[C@](O)(Cn1cncn1)c1ccc(F)cc1F`, for which the MIC (as a rule, the lowest concentration that inhibits growth of the organism) is 1 µg/mL (≈ 2.03 µM).

For the compound `C[C@@H](OCc1ccn(Cc2ccc(C#N)cc2)n1)[C@](O)(Cn1cncn1)c1ccc(F)cc1F`, the minimum inhibitory concentration (MIC) is 0.5 µg/mL (≈ 1.08 µM).

`Cc1ccc(Cn2ccc(CO[C@H](C)[C@](O)(Cn3cncn3)c3ccc(F)cc3F)n2)cc1`: the MIC came out at 0.25 µg/mL (≈ 0.551 µM).

For `C[C@@H](OCc1ccn(Cc2ccccc2)n1)[C@](O)(Cn1cncn1)c1ccc(F)cc1F`, the minimum inhibitory concentration (MIC) was 0.5 µg/mL (≈ 1.14 µM).

Turning to `C[C@@H](OCc1ccn(Cc2cc(F)ccc2F)n1)[C@](O)(Cn1cncn1)c1ccc(F)cc1F`, the MIC is 0.5 µg/mL (≈ 1.05 µM).

Regarding `C[C@@H](OCc1ccn(Cc2c(F)cc(F)cc2F)n1)[C@](O)(Cn1cncn1)c1ccc(F)cc1F`, the MIC was determined as 0.5 µg/mL (≈ 1.01 µM).

In a further test the test system is Candida albicans. The test is described as follows: Antifungal activity against fluconazole-resistant Candida albicans 904 assessed as inhibition of fungal growth incubated for 48 hrs by CLSI based broth microdilution assay. It is filed as functional.
Details: not given
For `C[C@@H](OCc1ccn(Cc2cc(F)ccc2F)n1)[C@](O)(Cn1cncn1)c1ccc(F)cc1F`, the MIC is > 64 µg/mL.

The subject of another test is Candida tropicalis. Description: Antifungal activity against Candida tropicalis 8915 assessed as inhibition of fungal growth incubated for 48 hrs by CLSI based broth microdilution assay. It is filed as functional.
Details: not given
Consider `C[C@@H](OCc1ccn(Cc2ccc(F)cc2Cl)n1)[C@](O)(Cn1cncn1)c1ccc(F)cc1F`, for which the MIC was 8 µg/mL (≈ 16.3 µM).

On to `C[C@@H](OCc1ccn(Cc2ccc(C#N)cc2)n1)[C@](O)(Cn1cncn1)c1ccc(F)cc1F`, for which the MIC worked out at 0.5 µg/mL (≈ 1.08 µM).

Consider `Cc1ccc(Cn2ccc(CO[C@H](C)[C@](O)(Cn3cncn3)c3ccc(F)cc3F)n2)cc1`, for which the MIC was 16 µg/mL (≈ 35.3 µM).

In the case of `C[C@@H](OCc1ccn(Cc2ccccc2)n1)[C@](O)(Cn1cncn1)c1ccc(F)cc1F`, the MIC turned out to be 32 µg/mL (≈ 72.8 µM).

Regarding `C[C@@H](OCc1ccn(Cc2cc(F)ccc2F)n1)[C@](O)(Cn1cncn1)c1ccc(F)cc1F`, the MIC was found to be 0.25 µg/mL (≈ 0.526 µM).

Regarding `C[C@@H](OCc1ccn(Cc2c(F)cc(F)cc2F)n1)[C@](O)(Cn1cncn1)c1ccc(F)cc1F`, the MIC stood at 64 µg/mL (≈ 130 µM).

The next test relates to Nakaseomyces glabratus. Description: Antifungal activity against Candida glabrata 537 assessed as inhibition of fungal growth incubated for 48 hrs by CLSI based broth microdilution assay. It is filed as functional.
Details: not given
Turning to `C[C@@H](OCc1ccn(Cc2ccc(F)cc2Cl)n1)[C@](O)(Cn1cncn1)c1ccc(F)cc1F`, the MIC turned out to be 1 µg/mL (≈ 2.03 µM).

As to `C[C@@H](OCc1ccn(Cc2ccc(C#N)cc2)n1)[C@](O)(Cn1cncn1)c1ccc(F)cc1F`, the MIC was 1 µg/mL (≈ 2.15 µM).

Turning to `Cc1ccc(Cn2ccc(CO[C@H](C)[C@](O)(Cn3cncn3)c3ccc(F)cc3F)n2)cc1`, the MIC stood at 2 µg/mL (≈ 4.41 µM).

For `C[C@@H](OCc1ccn(Cc2ccccc2)n1)[C@](O)(Cn1cncn1)c1ccc(F)cc1F`, the MIC was 0.25 µg/mL (≈ 0.569 µM).

For the compound `C[C@@H](OCc1ccn(Cc2cc(F)ccc2F)n1)[C@](O)(Cn1cncn1)c1ccc(F)cc1F`, the MIC was 0.25 µg/mL (≈ 0.526 µM).

On to `C[C@@H](OCc1ccn(Cc2c(F)cc(F)cc2F)n1)[C@](O)(Cn1cncn1)c1ccc(F)cc1F`, for which the minimal inhibitory concentration (MIC) turned out to be 0.5 µg/mL (≈ 1.01 µM).

The next test deals with [Candida] auris. Description: Antifungal activity against fluconazole-resistant Candida auris 891 assessed as inhibition of fungal growth incubated for 48 hrs by CLSI based broth microdilution assay. It counts as functional. The following applies: Candidozyma auris.
On to `C[C@@H](OCc1ccn(Cc2cc(F)ccc2F)n1)[C@](O)(Cn1cncn1)c1ccc(F)cc1F`, for which the MIC stood at 16 µg/mL (≈ 33.7 µM).

In another test the test system is Candida albicans. The test is described as follows: Antifungal activity against Candida albicans SC5314 assessed as inhibition of fungal growth incubated for 48 hrs by CLSI based broth microdilution assay. It is filed as functional.
Details: not given
Turning to `C[C@@H](OCc1ccn(Cc2ccc(F)cc2Cl)n1)[C@](O)(Cn1cncn1)c1ccc(F)cc1F`, the MIC is ≤ 0.125 µg/mL.

With `C[C@@H](OCc1ccn(Cc2ccc(C#N)cc2)n1)[C@](O)(Cn1cncn1)c1ccc(F)cc1F`, the MIC was ≤ 0.125 µg/mL.

Take `Cc1ccc(Cn2ccc(CO[C@H](C)[C@](O)(Cn3cncn3)c3ccc(F)cc3F)n2)cc1`: the MIC is ≤ 0.125 µg/mL.

Regarding `C[C@@H](OCc1ccn(Cc2ccccc2)n1)[C@](O)(Cn1cncn1)c1ccc(F)cc1F`, the MIC was 0.5 µg/mL (≈ 1.14 µM).

Consider `C[C@@H](OCc1ccn(Cc2cc(F)ccc2F)n1)[C@](O)(Cn1cncn1)c1ccc(F)cc1F`, for which the MIC was ≤ 0.125 µg/mL.

Consider `C[C@@H](OCc1ccn(Cc2c(F)cc(F)cc2F)n1)[C@](O)(Cn1cncn1)c1ccc(F)cc1F`, for which the MIC came out at 0.25 µg/mL (≈ 0.507 µM).

Another test concerns Cryptococcus neoformans. Description: Antifungal activity against Cryptococcus neoformans 32609 assessed as inhibition of fungal growth incubated for 72 hrs by CLSI based broth microdilution assay. It counts as functional.
Details: not given
Take `C[C@@H](OCc1ccn(Cc2ccc(F)cc2Cl)n1)[C@](O)(Cn1cncn1)c1ccc(F)cc1F`: the MIC came out at 0.25 µg/mL (≈ 0.508 µM).

For the compound `C[C@@H](OCc1ccn(Cc2ccc(C#N)cc2)n1)[C@](O)(Cn1cncn1)c1ccc(F)cc1F`, the MIC turned out to be 1 µg/mL (≈ 2.15 µM).

For the compound `Cc1ccc(Cn2ccc(CO[C@H](C)[C@](O)(Cn3cncn3)c3ccc(F)cc3F)n2)cc1`, the minimum inhibitory concentration (MIC) was determined as 0.5 µg/mL (≈ 1.1 µM).

As for `C[C@@H](OCc1ccn(Cc2ccccc2)n1)[C@](O)(Cn1cncn1)c1ccc(F)cc1F`, the MIC turned out to be 0.25 µg/mL (≈ 0.569 µM).

For the compound `C[C@@H](OCc1ccn(Cc2cc(F)ccc2F)n1)[C@](O)(Cn1cncn1)c1ccc(F)cc1F`, the MIC amounted to 0.5 µg/mL (≈ 1.05 µM).

Take `C[C@@H](OCc1ccn(Cc2c(F)cc(F)cc2F)n1)[C@](O)(Cn1cncn1)c1ccc(F)cc1F`: the MIC stood at 0.5 µg/mL (≈ 1.01 µM).

A further test deals with [Candida] auris. Description: Antifungal activity against fluconazole-resistant Candida auris 918 assessed as inhibition of fungal growth incubated for 48 hrs by CLSI based broth microdilution assay. It counts as functional. The following applies: Candidozyma auris.
Turning to `C[C@@H](OCc1ccn(Cc2cc(F)ccc2F)n1)[C@](O)(Cn1cncn1)c1ccc(F)cc1F`, the MIC worked out at 32 µg/mL (≈ 67.3 µM).

In the next test the test system is [Candida] auris. The test is described as follows: Antifungal activity against fluconazole-resistant Candida auris 919 assessed as inhibition of fungal growth incubated for 48 hrs by CLSI based broth microdilution assay. It is filed as functional. Particulars: Candidozyma auris.
As to `C[C@@H](OCc1ccn(Cc2cc(F)ccc2F)n1)[C@](O)(Cn1cncn1)c1ccc(F)cc1F`, the MIC was determined as 32 µg/mL (≈ 67.3 µM).

The next test has as its system Pichia kudriavzevii. The test is described as follows: Antifungal activity against Candida krusei 4996 assessed as inhibition of fungal growth incubated for 48 hrs by CLSI based broth microdilution assay. It is filed as functional.
Details: not given
Turning to `C[C@@H](OCc1ccn(Cc2ccc(F)cc2Cl)n1)[C@](O)(Cn1cncn1)c1ccc(F)cc1F`, the MIC amounted to 4 µg/mL (≈ 8.13 µM).

On to `C[C@@H](OCc1ccn(Cc2ccc(C#N)cc2)n1)[C@](O)(Cn1cncn1)c1ccc(F)cc1F`, for which the MIC came out at 8 µg/mL (≈ 17.2 µM).

In the case of `Cc1ccc(Cn2ccc(CO[C@H](C)[C@](O)(Cn3cncn3)c3ccc(F)cc3F)n2)cc1`, the MIC was 2 µg/mL (≈ 4.41 µM).

On to `C[C@@H](OCc1ccn(Cc2ccccc2)n1)[C@](O)(Cn1cncn1)c1ccc(F)cc1F`, for which the MIC is 4 µg/mL (≈ 9.1 µM).

On to `C[C@@H](OCc1ccn(Cc2cc(F)ccc2F)n1)[C@](O)(Cn1cncn1)c1ccc(F)cc1F`, for which the MIC worked out at 4 µg/mL (≈ 8.41 µM).

Take `C[C@@H](OCc1ccn(Cc2c(F)cc(F)cc2F)n1)[C@](O)(Cn1cncn1)c1ccc(F)cc1F`: the MIC worked out at 8 µg/mL (≈ 16.2 µM).

For another test, the system named is Candida albicans. The test is described as follows: Antifungal activity against Candida albicans 10231 assessed as inhibition of fungal growth incubated for 48 hrs by CLSI based broth microdilution assay. It is filed as functional.
Details: not given
Consider `C[C@@H](OCc1ccn(Cc2ccc(F)cc2Cl)n1)[C@](O)(Cn1cncn1)c1ccc(F)cc1F`, for which the MIC was 0.25 µg/mL (≈ 0.508 µM).

On to `C[C@@H](OCc1ccn(Cc2ccc(C#N)cc2)n1)[C@](O)(Cn1cncn1)c1ccc(F)cc1F`, for which the MIC was determined as 0.25 µg/mL (≈ 0.538 µM).

Turning to `Cc1ccc(Cn2ccc(CO[C@H](C)[C@](O)(Cn3cncn3)c3ccc(F)cc3F)n2)cc1`, the MIC is 0.25 µg/mL (≈ 0.551 µM).

For `C[C@@H](OCc1ccn(Cc2ccccc2)n1)[C@](O)(Cn1cncn1)c1ccc(F)cc1F`, the MIC was 0.5 µg/mL (≈ 1.14 µM).

In the case of `C[C@@H](OCc1ccn(Cc2cc(F)ccc2F)n1)[C@](O)(Cn1cncn1)c1ccc(F)cc1F`, the MIC turned out to be 0.25 µg/mL (≈ 0.526 µM).

Consider `C[C@@H](OCc1ccn(Cc2c(F)cc(F)cc2F)n1)[C@](O)(Cn1cncn1)c1ccc(F)cc1F`, for which the MIC came out at 0.5 µg/mL (≈ 1.01 µM).

For another test, the system named is Candida albicans. The test is described as follows: Antifungal activity against fluconazole-resistant Candida albicans 901 assessed as inhibition of fungal growth incubated for 48 hrs by CLSI based broth microdilution assay. It counts as functional.
Details: not given
Turning to `C[C@@H](OCc1ccn(Cc2cc(F)ccc2F)n1)[C@](O)(Cn1cncn1)c1ccc(F)cc1F`, the MIC was > 64 µg/mL.
